Assay results: US20050181457A1, “FcyrIII signaling inhibitor assay” (priority 2002, published 2005)

Test system: FcγRIII signaling
Assay: FcγRIII signaling inhibitor assay: IgG2a-complex stimulated DC18 C10 cells, hTNFα promoter-luciferase reporter
Type: cell-based, mouse
Settings: DC18 C10 cells stimulated with IgG2a complexes; inhibitor at its described IC50 concentration; FIG. 3
Description: Cells are transfected by electroporation at optimised conditions (200V, 960 pF) with a TNFα promoter—luciferase—TNFα 3′ end construct and plated in 10 ml of medium immediately after electroporation and purified by Lymphoprep the next day. 1×10^4 viable cells per well are plated in 96 well microtiter plates in 100 μl of medium each plus 250 μg/ml of geneticin (G418). Two days later 100 μl of fresh medium are added. Every second day 100 μl of medium are removed and substituted by 100 μl of fresh medium. Stable clones are selected by conventional cell culture methods and single cell cloning. […] The best responder is subjected to one round of further limited dilution cloning (single cell cloning) and named DC18 clone10 (=DC18 C10). This clone is selected for all further studies.
1×10^4 cells are seeded in 50 μl medium per well (Optiplate, Packard). Incubation with candidate compounds is done for 45 minutes prior to stimulation with 5 μg/ml of murine IgG of different subtypes complexed either with 10 μg/ml of DNP-BSA or 30 μg/ml of rabbit anti mouse Ig F(ab′)2 fragments. Stimulation is carried on for further 4 hours. Subsequently 13 μl of a 5 times concentrated reporter lysis buffer (Promega) are added and cells are lysed by freeze-(−80°) thaw cycle. For the readout 50 μl of luciferase substrate (Promega) are added and luciferase activity is measured in a MicroBetaJet (Wallac). […]

With `O=c1cc(-c2ccc(O)cc2)oc2cc(O)cc(O)c12` [Apigenin] the “inhibition of IgG2a complexes-provoked luciferase induction (readout)” value was “inhibits IgG2a complexes-provoked luciferase induction”.
